Patent publication US20150045551A1, “FUSED AZOLE DERIVATIVE” (TAISHO PHARMACEUTICAL CO., LTD, priority 2012, published 2015)

Columns and labels:
[1] = molecular target: T1, Human V1b receptor (Homo sapiens, UniProt P47901); test: Measurement of V1b receptor antagonistic activity (AVP-induced Fluo-4 fluorescence, FDSS); format: cell-based; set-up: expressed in transfected cells; conditions: CHO cells stably expressing human V1b receptor; AVP 2.5 nmol/L; 30 minutes preincubation with test compound
T1 sequence (P47901 1-424): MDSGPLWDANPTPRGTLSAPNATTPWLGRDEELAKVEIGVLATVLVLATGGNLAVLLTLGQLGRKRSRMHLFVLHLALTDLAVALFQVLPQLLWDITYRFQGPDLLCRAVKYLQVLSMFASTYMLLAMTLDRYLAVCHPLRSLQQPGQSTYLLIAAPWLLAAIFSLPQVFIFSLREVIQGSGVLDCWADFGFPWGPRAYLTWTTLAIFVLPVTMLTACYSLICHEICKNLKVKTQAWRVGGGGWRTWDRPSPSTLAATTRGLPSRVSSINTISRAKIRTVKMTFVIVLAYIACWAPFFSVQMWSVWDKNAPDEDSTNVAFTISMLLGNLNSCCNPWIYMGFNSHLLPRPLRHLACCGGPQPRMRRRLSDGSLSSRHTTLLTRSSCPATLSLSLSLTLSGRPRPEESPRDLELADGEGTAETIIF
Procedure: CHO cells so modified as to express human V1b receptor in a stable manner were cultured in Ham's F-12 medium (containing 10% FBS and 0.5 mg/mL Geneticin). On the day before the test, seeding was conducted at a density of 20,000 cells/well in a 96-well poly-D-lysine coated black plate. On the day of the test, the culture medium was removed, and a loading solution (1×HBSS, 10 mmol/L HEPES, 0.1% bovine serum albumin, 1.25 mmol/L Probenecid, 0.02% Pluronic F-127, 1.5 μmol/L Fluo-4-AM, pH 7.4) was added to each well, followed by incubation in a CO2 incubator for an hour. After the incubation, the loading solution was removed. A test solution (1×HBSS, 10 mmol/L HEPES, 0.1% bovine serum albumin, 1.25 mmol/L Probenecid, pH 7.4) containing any one of test compounds was added to wells, followed by incubation in a CO2 incubator for 30 minutes. The test compound was serially diluted with DMSO so that it would have final concentrations of 0.1 nmol/L to 1 μmol/L at the time of assaying. After the incubation, fluorescence intensity levels were measured and AVP added by means of FDSS (Hamamatsu Photonics K.K.); AVP was added to give a final concentration of 2.5 nmol/L at the time of assaying. […] The fluorescence level in a well to which neither test compound nor AVP was added was defined as 0%, and the fluorescence level in a well to which only AVP was added and no test compound was added was defined as 100%. A dose-response curve was plotted from fluorescence levels after the addition of AVP in the presence of a test compound at various concentrations, and the 50% inhibitory concentration (IC50 value) of the compound was calculated.

[2] = molecular target: T1, Human V1b receptor; test: Binding test for V1b receptor ([3H]AVP displacement, crude membrane preparation); set-up: expressed in transfected cells; host or cells: 293FT cells (transient expression); conditions: [3H]AVP 0.4 to 1 nmol/L; membranes of 293FT cells transiently expressing human V1b receptor; room temperature, 60 minutes
Procedure: Human V1b receptor was transiently expressed in 293FT cells, which were then recovered and homogenated in a 15 mmol/L tris-hydrochloric acid buffer (pH 7.4 and containing 2 mmol/L magnesium chloride, 0.3 mmol/L ethylenediaminetetracetic acid, and 1 mmol/L glycol ether diaminetetraacetic acid). The resulting homogenate was centrifuged at 50,000×g at 4 ° C. for 20 minutes. The precipitate was resuspended in a 75 mmol/L tris-hydrochloric acid buffer (pH 7.4 and containing 12.5 mmol/L magnesium chloride, 0.3 mmol/L ethylenediaminetetracetic acid, 1 mmol/L glycol ether diaminetetraacetic acid, and 250 mmol/L sucrose) to give a crude membrane preparation, which was stored at −80° C. until the binding test was initiated. In the binding test, the crude membrane preparation was diluted with a 50 mmol/L tris-hydrochloric acid buffer (pH 7.4 and containing 10 mmol/L magnesium chloride and 0.1% bovine serum albumin) and mixed with each test compound and [^3H]AVP (final concentration: 0.4 to 1 nmol/L), followed by incubation at room temperature for 60 minutes. The test compound was serially diluted with DMSO so that it would have final concentrations of 0.01 nmol/L to […] at the time of mixing. After the incubation, the mixture was suction filtered through a GF/C filter that was preliminarily impregnated with 0.3% polyethyleneimine. The GF/C filter was dried and after adding a scintillator, the residual radioactivity on the filter was measured using TopCount (PerkinElmer Inc.). The radioactivity in the presence of unlabeled AVP at 10 μmol/L was defined as 0%, and the radioactivity in the absence of unlabeled AVP was defined as 100%. A dose-response curve was plotted from radioactivities in the presence of a test compound at various concentrations, and the 50% inhibitory concentration (IC50 value) of the test compound was calculated.

| Structure (SMILES) | IC50 [1] [µM] | IC50 [2] [µM] |
| --- | --- | --- |
| CC(C)NC(=O)Cn1c(-c2cccc(Cl)c2)nc2cc(OCCCN3CCCCC3)ccc21 [Example A-1, 2-{2-(3-chlorophenyl)-5-[3-(piperidin-1-yl)propoxy]-1H-benzimidazol-1-yl}-N-isopropyl acetamide] | 0.212 | 0.0144 |
| COc1cc(-c2nc3cc(OCCCN4CCCCC4)ccc3n2CC(=O)NC(C)C)ccc1F [Example A-5, 2-{2-(4-fluoro-3-methoxyphenyl)-5-[3-(piperidin-1-yl)propoxy]-1H-benzimidazol-1-yl}-N-isopropyl acetamide] | 0.122 | 0.0433 |
| COc1cc(-c2nc3cc(OCCCN4CCOCC4)ccc3n2CC(=O)NC(C)C)ccc1F [Example A-6, 2-{2-(4-fluoro-3-methoxyphenyl)-5-[3-(morpholin-4-yl)propoxy]-1H-benzimidazol-1-yl}-N-isopropyl acetamide] | 0.0259 | 0.0293 |
| COc1cc(-c2nc3cc(-c4cc(Cl)cc(CN(C)C)c4)ccc3n2CC(=O)NC(C)C)ccc1F [Example A-9, 2-[5-{3-chloro-5-[(dimethylamino)methyl]phenyl}-2-(4-fluoro-3-methoxyphenyl)-1H-benzimidazol-1-yl]-N-isopropyl acetamide] | 0.101 | 0.0026 |
| CC(C)NC(=O)Cn1c(-c2ccc(F)c(Cl)c2)nc2cc(OCCCN3CCCCC3)ccc21 [Example A-11, 2-{2-(3-chloro-4-fluorophenyl)-5-[3-(piperidin-1-yl)propoxy]-1H-benzimidazol-1-yl}-N-isopropyl acetamide] | 0.088 | – |
| CC(C)NC(=O)Cn1c(-c2ccc(F)c(Cl)c2)nc2cc(OCCCN3CCCCCC3)ccc21 [Example A-13, 2-{5-[3-(azepan-1-yl)propoxy]-2-(3-chloro-4-fluorophenyl)-1H-benzimidazol-1-yl}-N-isopropyl acetamide] | 0.0624 | 0.0329 |
| CC(C)NC(=O)Cn1c(-c2ccc(F)c(Cl)c2)nc2cc(OCCCN3CCOCC3)ccc21 [Example A-14, 2-{2-(3-chloro-4-fluorophenyl)-5-[3-(morpholin-4-yl)propoxy]-1H-benzimidazol-1-yl}-N-isopropyl acetamide] | 0.0535 | 0.0125 |
| CC(C)NC(=O)Cn1c(-c2cccc(Cl)c2)cc2cc(OCCCN3CCCCC3)ccc21 [Example B-1, 2-{2-(3-chlorophenyl)-5-[3-(piperidin-1-yl)propoxy]-1H-indol-1-yl}-N-isopropyl acetamide] | 0.097 | 0.0087 |
| CC(C)NC(=O)Cn1c(-c2ccc(F)c(Cl)c2)cc2cc(OCCCN3CCCCC3)ccc21 [Example B-4, 2-{2-(3-chloro-4-fluorophenyl)-5-[3-(piperidin-1-yl)propoxy]-1H-indol-1-yl}-N-isopropyl acetamide] | 0.0219 | 0.0049 |
| CC(C)NC(=O)Cn1c(-c2ccc(F)c(Cl)c2)cc2cc(OCCCN3CCOCC3)ccc21 [Example B-5, 2-{2-(3-chloro-4-fluorophenyl)-5-[3-(morpholin-4-yl)propoxy]-1H-indol-1-yl}-N-isopropyl acetamide] | 0.008 | 0.0089 |
| CC(C)NC(=O)Cn1c(-c2cccc(Cl)c2)cc2cc(OCCCN3CC4(COC4)C3)ccc21 [Example B-9, 2-{2-(3-chlorophenyl)-5-[3-(2-oxa-6-azaspiro[3.3]hept-6-yl)propoxy]-1H-indol-1-yl}-N-isopropyl acetamide] | 0.0214 | 0.0053 |
| COc1cc(-c2cc3cc(OCCCN4CCC[C@H]4C)ccc3n2CC(=O)NC(C)C)ccc1F [Example B-16, 2-[2-(4-fluoro-3-methoxyphenyl)-5-{3-[(2R)-2-methylpyrrolidin-1-yl]propoxy}-1H-indol-1-yl]-N-isopropyl acetamide] | – | 0.166 |
| CC(C)NC(=O)Cn1c(-c2ccc(F)c(Cl)c2)cc2cc(OC3CCN(C4CCCC4)CC3)ccc21 [Example B-17, 2-{2-(3-chloro-4-fluorophenyl)-5-[(1-cyclopentylpiperidin-4-yl)oxy]-1H-indol-1-yl}-N-isopropyl acetamide] | 0.006 | 0.00086 |
| CC(C)NC(=O)Cn1c(-c2cccc(Cl)c2)cc2cc(CCCCN3CCCCC3)ccc21 [Example B-18, 2-{2-(3-chlorophenyl)-5-[4-(piperidin-1-yl)butyl]-1H-indol-1-yl}-N-isopropyl acetamide] | – | 0.0201 |
| COc1cncc(-c2cc3cc(OCCCN4CCCCC4)ccc3n2CC(=O)NC(C)C)c1 [Example B-19, N-isopropyl-2-{2-(5-methoxypyridin-3-yl)-5-[3-(piperidin-1-yl)propoxy]-1H-indol-1-yl}acetamide] | – | 0.387 |
| COc1cccc(-c2cc3cc(OCCCN4CCCCC4)ccc3n2CC(=O)NC(C)C)c1 [Example B-20, N-isopropyl-2-{2-(3-methoxyphenyl)-5-[3-(piperidin-1-yl)propoxy]-1H-indol-1-yl}acetamide] | – | 0.129 |
| CC(C)NC(=O)Cn1c(-c2cccc(Cl)c2)cc2cc(OCCCN3CCCCC3)cnc21 [Example B-21, 2-{2-(3-chlorophenyl)-5-[3-(piperidin-1-yl)propoxy]-1H-pyrrolo[2,3-b]pyridin-1-yl}-N-isopropyl acetamide] | 0.0508 | 0.0214 |
| CC(C)NC(=O)Cn1c(-c2cccc(Cl)c2)cc2nc(OCCCN3CCCCC3)ccc21 [Example B-22, 2-{2-(3-chlorophenyl)-5-[3-(piperidin-1-yl)propoxy]-1H-pyrrolo[3,2-b]pyridin-1-yl}-N-isopropyl acetamide] | – | 0.0471 |
| CC(C)NC(=O)Cc1c(-c2ccc(F)c(Cl)c2)nc2cc(OCCCN3CCCCC3)ccn12 [Example C-1, 2-{2-(3-chloro-4-fluorophenyl)-7-[3-(piperidin-1-yl)propoxy]imidazo[1,2-a]pyridin-3-yl}-N-isopropyl acetamide] | – | 0.0107 |
| CC(C)NC(=O)Cc1c(-c2ccc(F)c(Cl)c2)nc2cc(OCCCN3CCOCC3)ccn12 [Example C-2, 2-{2-(3-chloro-4-fluorophenyl)-7-[3-(morpholin-4-yl)propoxy]imidazo[1,2-a]pyridin-3-yl}-N-isopropyl acetamide] | – | 0.0099 |
| CC(C)NC(=O)Cn1c(=O)c2cc(OCCCN3CCCCC3)ccc2n1-c1cccc(Cl)c1 [Example D-1, 2-{1-(3-chlorophenyl)-3-oxo-5-[3-(piperidin-1-yl)propoxy]-1,3-dihydro-2H-indazol-2-yl}-N-isopropyl acetamide] | – | 0.375 |
| CC(C)NC(=O)Cn1c(-c2cccc(Cl)c2)cc2c1CCN(CCCCN1CCCCC1)C2 [Example E-1, 2-{2-(3-chlorophenyl)-5-[4-(piperidin-1-yl)butyl]-4,5,6,7-tetrahydro-1H-pyrrolo[3,2-c]pyridin-1-yl}-N-isopropyl acetamide] | – | 0.522 |
| CC(C)NC(=O)Cc1nc2cc(OCCCN3CCCCC3)ccn2c1-c1cccc(Cl)c1 [Example F-1, 2-{3-(3-chlorophenyl)-7-[3-(piperidin-1-yl)propoxy]imidazo[1,2-a]pyridin-2-yl}-N-isopropyl acetamide] | – | 0.082 |
